Data on 41 compounds can be found in patent US5863950A, “HIV protease inhibitors” (Agouron Pharmaceuticals, Inc., priority 1994, dated 1999).

Values joined by “and” are separate entries in the source; they are usually repeats but may differ in a detail not shown here. Equal entries are not always repeated. Bounds are passed on as bounds.

The target of the first assay is T1, HIV-1 protease (Human immunodeficiency virus type 1 group M subtype B, UniProt P04585).
T1 construct: purified HIV-1 protease
The assay can be described thus: biochemical. The class given is biochemical.
Details: not given
How it is done: 1. Proteolytic activity of purified HIV-1 protease was routinely measured using the chromogenic assay developed by Richards et al. (J. Biol. Chem. 265: 7733 (1990)). Synthetic peptide His-Lys-Ala-Arg-Val-Leu-Phe (pNO2)-Glu-Ala-Nle-Ser-NH2 (American Peptide Company) was used as the substrate.
2. The assay was carried out in 0.5M NaCl, 50 mM MES pH 5.6, 2% DMSO (dimethylsulfoxide) at 37° C. Cleavage of the scissile bond between leucine and paranitro-phenylalanine (Phe(pNO2)) was assayed by spectrophotometric monitoring of the decrease in absorbance at 305 nm. Initial velocity was determined as the rate of decline of absorbance during the first 100 seconds of reaction.
3. […] Between 15-25 concentrations of inhibitor were added and velocity of reaction was measured at each of the concentrations, as described above.
4. Inhibition constants were calculated using the method of Jackson et al. (Adv. in Enzyme Regulation 22: 187 (1984)).
For orientation: IC50 means the concentration needed to halve the response being measured. Low values mean inhibition by little substance, high ones a need for much substance. The Ki is the equilibrium dissociation constant of an inhibitor or competing ligand from its target. A lower Ki goes with a stronger hold on the target. Regarding `CC(C)(C)NC(=O)c1c(CCC(O)Cc2ccc3ccccc3c2C(=O)NC(C)(C)C)ccc2ccccc12` (single isomer, unassigned) [Example 49], the IC50 came out at 0.88 µM and the Ki stood at 480 nM.

Staying with this assay, now noted: 0.5M NaCl, 50 mM MES pH 5.6, 2% DMSO, 37° C., 200 μM substrate.
As for `CC(C)(C)NC(=O)c1cnccc1CC(O)CCc1ccc2ccccc2c1C(=O)NC(C)(C)C` (centres unmarked) [Example 11], the 50% inhibitory concentration (IC50) was found to be 18 µM.
With `CC(C)(C)NC(=O)c1cc2ccccc2cc1CCC(O)Cc1ccccc1C(=O)N(CCO)C(C)(C)C` (centres unmarked) [Example 60], inhibition was half-maximal at 4.1 µM (IC50) and the Ki amounted to 2700 nM.
Take `CC(C)(C)N(CCO)C(=O)c1ccccc1CCC(=O)C(F)c1ccccc1C(=O)N(CCO)C(C)(C)c1ccccc1` (centres unmarked) [Example 70]: the IC50 amounted to 9 µM. In other words, the single-digit micromolar range.
As to `CC(C)(C)NC(=O)c1cc(C(C)(C)C)ccc1CC[C@@H](O)Cc1ccc2ccccc2c1C(=O)NC(C)(C)C` [Example 8], the IC50 is about 20 µM.
In turn, `CC(C)(C)NC(=O)c1ccccc1CC(O)CSc1ccccc1C(=O)N1CCOCC1` (centres unmarked) [Example 42] showed an IC50 of 150 to 200 µM.
Consider `CC(C)N1CCC(CC(O)CCc2ccc3ccccc3c2C(=O)NC(C)(C)C)=C(C(=O)NC(C)(C)C)C1` (centres unmarked) [Example 48], for which the IC50 was determined as 70 µM.
Take `CC(C)(C)N(CCO)C(=O)c1ccccc1CCC(O)Cc1ccccc1C(=O)N(Cc1ccccc1)C(C)(C)C` (centres unmarked) [Example 64]: the IC50 was 8.3 µM and the Ki amounted to 7900 nM.
`CC(C)(C)NC(=O)c1cc(C(C)(C)C)ccc1CCC(O)Cc1ccccc1C(=O)N(CCO)C(C)(C)C` (centres unmarked) [Example 35] came in with an IC50 of 1.19 µM and a Ki of 840 nM.
The compound `CN(C)CCNC(=O)c1ccccc1CC(O)CSc1ccccc1C(=O)NCCN(C)C` (centres unmarked) [Example 37] displayed an IC50 of over 500 µM.
In the case of `CCc1ccc(CC(O)CCc2ccccc2C(=O)N(CCOCc2ccccc2)C(C)(C)c2ccccc2)c(C(=O)N(CCO)C(C)(C)c2ccccc2)c1` (centres unmarked) [Example 88], the IC50 is 0.23 µM and the affinity corresponds to a Ki of 75 nM.
With `CC(C)(C)NC(=O)c1ccccc1CC(O)CSc1ccccc1C(=O)NC(C)(C)C` (centres unmarked) [Example 23], the half-maximal inhibitory concentration (IC50) lay in the range of 75 to 100 µM.
Regarding `CC(C)(C)NC(=O)c1ccccc1CCC(O)Cc1ccccc1C(=O)NC(C)(C)C` (centres unmarked) [Example 25], the IC50 was 18 µM.
As to `CC(C)(C)NC(=O)c1c(CCC(O)CCc2ccc3ccccc3c2C(=O)NC(C)(C)C)ccc2ccccc12` [Example 32], the IC50 is 7 µM.
Take `CC(C)(C)N(CCO)C(=O)c1ccccc1CCC(O)C(F)c1ccccc1C(=O)N(CCO)C(C)(C)c1ccccc1` (centres unmarked) [Example 71]: half-maximal inhibition (IC50) was put at 1.3 µM and the Ki was found to be 879 nM.
`CC(C)(C)NC(=O)[C@@H]1C[C@@H]2CCCC[C@@H]2CN1CC(O)CCc1ccccc1C(=O)N(CCO)C(C)(C)C` (single isomer, unassigned) [Example 29] gave an IC50 of 55 µM.
Turning to `CC(C)(C)NC(=O)c1ccccc1CC(O)C(O)Cc1ccccc1C(=O)NC(C)(C)C` (centres unmarked) [Example 56], the IC50 worked out at 64 µM and the affinity corresponds to a Ki of 56000 nM.
Compound `CN(C)CC(C)(C)CNC(=O)c1ccccc1SCC(O)Cc1ccccc1C(=O)NC(C)(C)C` (centres unmarked) [Example 40] registered an IC50 of over 500 µM.
For `CC(C)(C)NC(=O)c1ccccc1SCC(O)c1ccccc1C(=O)NC(C)(C)C` (centres unmarked) [Example 17], the IC50 is over 200 µM.
Same read-out and setting: for `CC(C)(C)NC(=O)c1ccccc1C#CC(O)Cc1ccccc1C(=O)NC(C)(C)C` (centres unmarked) [Example 26] the value was over 200 µM.
In turn, `CC(C)(C)N(CCO)C(=O)c1ccccc1CCC(O)Cc1ccccc1C(=O)N(CCO)C(C)(C)Cc1ccccc1` (centres unmarked) [Example 61] came in with an IC50 of 1.33 µM and a Ki of 1270 nM.
For `CC(C)(C)NC(=O)c1ccccc1CC(O)CSc1ccc(NC(=O)c2ccncc2)cc1C(=O)NC(C)(C)C` (centres unmarked) [Example 45], the IC50 turned out to be 60 µM.
`CC(C)(C)NC(=O)c1ccccc1CC(O)CSc1ccc2ccccc2c1C(=O)NC(C)(C)C` (centres unmarked) [Example 47] came in with a half-maximal inhibitory concentration (IC50) of 50 µM.
The same measure, in the same setting: for `CC(C)(C)N(CCCO)C(=O)c1ccccc1CCC(O)Cc1ccccc1C(=O)N(CCOCCN1CCOCC1)C(C)(C)c1ccccc1` (centres unmarked) [Example 75] the value was 8 µM; for `CC(C)(C)NC(=O)c1ccccc1SCC(O)CN1CCCCC1C(=O)NC(C)(C)C` (centres unmarked) [Example 22], 60 µM.
`CC(C)(C)N(CCO)C(=O)c1c(CCC(O)Cc2ccc3ccccc3c2C(=O)N(CCO)C(C)(C)C)ccc2ccccc12` (centres unmarked) [Example 6] registered an IC50 of 30 µM.
`CC(C)(C)NC(=O)c1cc(C(C)(C)C)ccc1CCC(O)Cc1ccc(C(C)(C)C)cc1C(=O)NC(C)(C)C` (centres unmarked) [Example 10] registered an IC50 of 15 µM.
The compound `COC(CSc1ccccc1C(=O)NC(C)(C)C)Cc1ccccc1C(=O)NC(C)(C)C` (centres unmarked) [Example 41] registered an IC50 of over 500 µM.
`CC(C)(C)NC(=O)c1c(CCC(O)Cc2ccc3ccccc3c2C(=O)N(CCO)C(C)(C)C)ccc2ccccc12` (centres unmarked) [Example 14] returned an IC50 of 5.6 µM and a Ki of 5400 nM.

Still in this assay, the particulars now being: at 10 (μM).
Consider `CC(C)(C)NC(=O)c1ccccc1CCC(O)Cc1ccccc1C(=O)N(Cc1ccccc1)C(C)(C)C` (centres unmarked) [Example 13], for which the “percent (inhibition)” value turned out to be 40%.

Staying with this assay, now noted: at 20 (μM).
For `CC(C)(C)NC(=O)c1cc2ccccc2cc1CCC(O)Cc1ccc2ccccc2c1C(=O)NC(C)(C)C` (centres unmarked) [Example 9], the “percent (inhibition)” value is given as 40%.

The same assay, now with this note: at 100 (μM).
As for `CN(C(=O)c1c(CC(O)CCc2ccc3ccccc3c2C(=O)NC(C)(C)C)ccc2c1CNCC2)C(C)(C)C` (centres unmarked) [Example 59], the “percent (inhibition)” value is 20%.
Same read-out and setting: for `CC(O)(CCc1ccccc1C(=O)NC(C)(C)C)Cc1ccccc1C(=O)NC(C)(C)C` (centres unmarked) [Example 34] the value was 40%.
On to `CC(C)(C)NC(=O)c1ccccc1CCC(O)CN1CCCCC1C(=O)NC(C)(C)C` (centres unmarked) [Example 31], for which the “percent (inhibition)” value was 20% and 35%.

Still in this assay, the particulars now being: at 200 (μM).
`CC(C)(C)NC(=O)c1ccccc1CC(O)CSc1ccc(N)cc1C(=O)NC(C)(C)C` (centres unmarked) [Example 44]: the “percent (inhibition)” value came to 20%.
`CC(C)(C)NC(=O)c1ccccc1/C=C/C(O)Cc1ccccc1C(=O)NC(C)(C)C` (centres unmarked) [Example 28]: the “percent (inhibition)” value is 40%.
In the case of `CC(=O)N1CCc2ccc(CC(O)CCc3ccc4ccccc4c3C(=O)NC(C)(C)C)c(C(=O)N(C)C(C)(C)C)c2C1` (centres unmarked) [Example 63], the “percent (inhibition)” value was found to be 40%.
Consider `CC(C)(C)NC(=O)c1ccccc1C(O)CSc1ccccc1NC(=O)C(C)(C)C` (centres unmarked) [Example 21], for which the “percent (inhibition)” value turned out to be 10%.
Consider `CC(C)(C)NC(=O)c1ccccc1CCC(O)C(O)CCc1ccccc1C(=O)NC(C)(C)C` (centres unmarked) [Example 57], for which the “percent (inhibition)” value is recorded as 93%.
Take `CC(C)(C)NC(=O)c1ccccc1CC(O)CSc1ccc([N+](=O)[O-])cc1C(=O)NC(C)(C)C` (centres unmarked) [Example 43]: the “percent (inhibition)” value is given as 20%.

The same assay, now with this note: substrate, standard conditions; read-out: Michaelis constant (Km).
A word on the Km: it is the substrate concentration at which the rate is half of its maximum. For “His-Lys-Ala-Arg-Val-Leu-Phe (pNO2)-Glu-Ala-Nle-Ser-NH2 [reference compound]”, the Km was 52 ± 16 µM.
